Data as given in patent US20230338338A1, “PHARMACEUTICAL COMPOSITIONS COMPRISING IONIC LIQUIDS” (The Provost, Fellows, Foundation Scholars, and the other …, priority 2021, published 2023).

Experiments:
Assay type in all cases: physicochemical
[1] = Thermodynamic stability and miscibility of the ionic liquid in dissolution media (stirred 24 hours at 37° C., then monitored for two years); settings: for miscibility with dissolution medium: 2 to 85% w/w; for thermodynamic stability (crystallisation or liquid-liquid phase separation): 2 to 85% w/w BMIm Ibu:dissolution medium, stirred 24 hours at 37° C., then ambient conditions over two years
Method: The thermodynamic stability of BMIm Ibu (ionic liquid) in deionised water (DIW) and simulated intestinal fluid (SIF; 0.05 M phosphate buffer, pH 6.8) was quantified as follows: Ratios of 2 to 85% w/w BMIm Ibu:dissolution medium were placed in small vials and allowed to stir for 24 hours at 37° C.

[2] = Dissolution study, USP Apparatus 2, deionised water; settings: 900 ml, 37° C., 50 rpm, equivalent of 200 mg ibuprofenate ion, after 10 minutes until the end of four hours
Method: (§1) Dissolution studies were performed using a USP Apparatus 2 with a Sotax AT7 dissolution bath (Carl Stuart Limited, Dublin, Ireland). The mass of powder corresponding to the equivalent of 200 mg of ibuprofenate ion (equivalent to one dose) was added to 900 ml of dissolution media equilibrated at 37° C. stirred at 50 rpm. Samples were taken and replaced with fresh media every 5 min for the first 30 min, then at 45 min, 60 min and then every 30 min for the remainder of the experiment. The first 2 ml of each 5 ml sample was filtered and discarded before the remaining sample was filtered through a 0.45 μm nylon filter into a HPLC vial. All experiments were carried out in triplicate. A sample of the powder was assayed by completely dissolving it in methanol (n=3) and finding the ionic liquid content by HPLC.
The dissolution of powders 1 and 5 to 8 in deionised water over a period of four hours was studied.
The dissolution of powders 9 and 10 in deionised water over a period of four hours was studied.
An ibuprofen amorphous solid dispersion was also tested. The amorphous solid dispersion was prepared by spray drying a solution of ibuprofen and hydroxypropyl methylcellulose in methanol in the same way as Powders 1 to 8. The ibuprofen content of the amorphous solid dispersion was the same as Powder 1.

[3] = Dissolution study, USP Apparatus 2, simulated intestinal fluid (SIF); settings: 0.05M phosphate buffer (pH 6.8), 900 ml, 37° C., 50 rpm, equivalent of 200 mg ibuprofenate ion, after 10 minutes until the end of four hours
Method: as §1
The dissolution of powders 1 and 5 to 8 in simulated intestinal fluid (SIF), 0.05M phosphate buffer (pH 6.8) over a period of four hours was studied.
The dissolution of powders 9 and 10 in simulated intestinal fluid (SIF), 0.05M phosphate buffer (pH 6.8) over a period of four hours was studied.

[4] = simulated intestinal fluid (SIF; 0.05 M phosphate buffer, pH 6.8)

SMILES	miscibility with dissolution medium ([1]; deionised water (DIW))	thermodynamic stability (crystallisation or liquid-liquid phase separation) ([1]; deionised water (DIW))	miscibility with dissolution medium [1, 4]	thermodynamic stability (crystallisation or liquid-liquid phase separation) [1, 4]	level of dissolution [2] [%]	level of dissolution [3] [%]
CC(C)Cc1ccc(C(C)C(=O)[O-])cc1.CCCCn1cc[n+](C)c1 (stereo not drawn) [BMIm Ibu, 1-butyl-3-methyl imidazolium ibuprofenate]	fully miscible	No crystallisation or phase separation was observed	fully miscible	No crystallisation or phase separation was observed		
CC(C)Cc1ccc(C(C)C(=O)O)cc1 (stereo not drawn) [crystalline ibuprofen, ibuprofen]					≤ 30	100
